{
  "source": "patent US12453757B2",
  "about": "“Method for ameliorating autism symptoms by pharmacological activation of the neurotensin receptor 1 (NTSR1)” (New York Institute of Technology, priority 2022, dated 2025)",
  "key": {"[1]": {"system": "SHANK3 haploinsufficiency mouse model of autism", "assay": "Odor detection in novel background odors (go/no-go behavioral task), SHANK3 haploinsufficiency mice", "type": "in vivo", "conditions": "6 mice, 0.13 mg/kg subcutaneous in saline, 30 minutes before test, chance 0.5, optimal 1", "experimental": "(§1) FIG. 1: Behavioral task used to test the effect of PD149163. Water-deprived, head-fixed mice were trained to identify target odors in the presence of background odors. […] If the target was the “go target” odors and the mouse licked, the mouse was rewarded with a small amount water. If the mouse wrongly licked the “no-go target” odors, no water was delivered and it was given a time out. After 10-13 days, mice performance exceeded 80%. The mice were then tested with the test set, that consisted of the same target odors but with novel background odors.\n(§2) In order to test the effect of NTSR1 agonists, a novel behavioral task was used developed in the lab. In this task (see FIG. 1), water-deprived, head-fixed mice were trained to identify target odors in the presence of background odors. If the mouse responded to the go target odors, it was rewarded with water. If the mouse wrongly responded to the no-go target odors, no water was delivered and it experienced a time out. Chance performance was 0.5 and optimal performance was 1. After mice mastered this task (performance>0.8) with a set of known background odors after ˜10 days of training, the animals were tested with the same targets but in the presence of novel background odors. The performance of WT mice with novel background odors is above chance (0.74, 95% CI: 0.68-0.80, 3 WT mice). […]"}, "[2]": {"system": "CNTNAP2 knockout mouse model of autism", "assay": "Odor detection in novel background odors (go/no-go behavioral task), CNTNAP2 knockout mice", "type": "in vivo", "experimental": "as §1\nIn order to test the effect of NTSR1 agonists, a novel behavioral task was used developed in the lab. In this task (see FIG. 1), water-deprived, head-fixed mice were trained to identify target odors in the presence of background odors. If the mouse responded to the go target odors, it was rewarded with water. If the mouse wrongly responded to the no-go target odors, no water was delivered and it experienced a time out. Chance performance was 0.5 and optimal performance was 1. After mice mastered this task (performance>0.8) with a set of known background odors after ˜10 days of training, the animals were tested with the same targets but in the presence of novel background odors. The performance of WT mice with novel background odors is above chance (0.74, 95% CI: 0.68-0.80, 3 WT mice).\nThis novel behavioral task was used to test the effects of the neurotensin receptor 1 agonists. The performances of both mouse models of autism without PD149163 (a peptide neurotensin receptor 1 agonist) were lower than the performance of the WT mice (SHANK3 haploinsufficiency: 0.62, 95% CI: 0.59-0.66, 6 mice, each mouse tested on 4 different days, CNTNAP2 knockout: 0.61, 95% CI: 0.56-0.65, 4 mice) (see FIG. 2). […] This dosage reversed the recognition deficit in novel environments shown by both mouse models of autism, with performance that matched the performance of the WT mice (SHANK3 haploinsufficiency: 0.81, 95% CI: 0.77-0.85, 6 mice, each mouse tested on 2 different days, CNTNAP2 knockout: 0.82, 95% CI: 0.77-0.86, 4 mice). […]"}, "[3]": {"system": "SHANK3 and CNTNAP2 mouse models of autism", "assay": "Odor detection in novel background odors, both mouse models of autism pooled (dose response, duration)", "type": "in vivo", "experimental": "FIG. 3: Performance of odor detection in novel environments as a function of the dose of PD149163 injected subcutaneously using saline as vehicle. The bars represent the average performance for all 10 tested mice (four CNTNAP2 mice and six SHANK3 mice) at the three doses tested. The error bars are the 95% CI. The lines represent the performance for individual mice. The p values were calculated using paired t-test to compare the average performances of the 10 tested mice using the 0.13 mg/kg against the 0.065 mg/kg dose and the no drug condition.\nas §2"}, "mice": {"system": "mice", "assay": "Lethargy side effect after injection", "type": "in vivo, mouse"}},
  "note": "Counter-ions that a name gives are not always drawn. Numbered stars: 1 amine (or outer) side, 2 acyl side, 3 side chain; on linkers, the order of the positions; unused ones are H or OH. Square brackets hold non-standard residues; d marks the D form. Peptide text beside a SMILES is read from it. X1 = NCCCC[C@H](N)CN([C@@H](CCCCN)C(=O)[*:2])[*:1]; Tle = CC(C)(C)[C@H](N)C(=O)O",
  "data": [
    {"smiles": "CCOC(=O)[C@H](CC(C)C)NC(=O)[C@@H](NC(=O)[C@H](Cc1c[nH]c2ccccc12)NC(=O)[C@@H]1CCCN1C(=O)[C@H](CCCCN)NC[C@@H](N)CCCCN)C(C)(C)C", "note": "[PD149163, N2-[(2S)-2,6-Diaminohexyl]-L-lysyl-L-prolyl-L-tryptophyl-3-methyl-L-valyl-L-Leucine ethyl ester tetrahydrochloride hydrate] (H-[X1]PW[Tle]L-OEt)", "values": [
      {"measurement": "Performance of odor detection with novel background odors", "setting": "[1]", "value": 0.81},
      {"measurement": "Performance of odor detection with novel background odors", "setting": "[2]; CNTNAP2 knockout male mice (2 mice, 2 sessions), 0.39 mg/kg in PEG400 (80 μg/ml), two subcutaneous injections 1 hour and 30 minutes before task", "value": 0.76},
      {"measurement": "Performance of odor detection with novel background odors", "setting": "[2]; CNTNAP2 knockout male mice (2 mice, 5 sessions), 0.13 mg/kg subcutaneous in saline, 30 minutes before test", "value": 0.54},
      {"measurement": "Performance of odor detection with novel background odors", "setting": "[2]; CNTNAP2 knockout, 4 mice, 0.13 mg/kg subcutaneous in saline, 30 minutes before test, chance 0.5, optimal 1", "value": 0.82},
      {"measurement": "Duration of drug effects on performance", "setting": "[3]; 0.13 mg/kg subcutaneous in saline, returned to baseline the next day", "value": "less than 24 hours"},
      {"measurement": "Improvement of behavior (odor detection performance)", "setting": "[3]; half dose 0.065 mg/kg subcutaneous, saline as vehicle", "value": "did not produce an improvement"},
      {"measurement": "Lethargy", "setting": "mice; 0.26 mg/Kg subcutaneous, PEG400 as vehicle, 2 SHANK3 mice", "value": "no lethargy"},
      {"measurement": "Lethargy", "setting": "mice; 0.26 mg/kg subcutaneous, saline as vehicle", "value": "produced lethargy"},
      {"measurement": "Lethargy", "setting": "mice; therapeutic dose by intraperitoneal injection instead of subcutaneous", "value": "resulted also in lethargy"}
    ]}
  ]
}
